ChEMBL document CHEMBL5365420, “Kinetics, Thermodynamics, and Structural Effects of Quinoline-2-Carboxylates, Zinc-Binding Inhibitors of New Delhi Metallo-β-lactamase-1 Re-sensitizing Multidrug-Resistant Bacteria for Carbapenems” (J Med Chem, 2023)

What was measured:
[1] = target: Metallo-beta-lactamase type 2 (Bacteria, UniProt C7C422)
Description: Inhibition of C-terminal 6His-tagged full length NDM-1 (unknown origin) expressed in Escherichia coli BL21-DE3 using nitrocefin as substrate incubated for 15 mins followed by substrate addition by absorbance based microplate reader analysis

[2] = Inhibition of IMP-1 (unknown origin) expressed in Escherichia coli BL21-DE3 incubated for 15 mins by absorbance based microplate reader analysis; design: species or system Bacteria
[3] = target: T1, 72 kDa type IV collagenase (Homo sapiens, UniProt P08253); test: Inhibition of human recombinant MMP-2 CD at 10 uM using OMNIMMP as substrate incubated for 30 mins by fluorescence based analysis relative to control
Target sequence in this assay (P08253 110-660 limits assumed): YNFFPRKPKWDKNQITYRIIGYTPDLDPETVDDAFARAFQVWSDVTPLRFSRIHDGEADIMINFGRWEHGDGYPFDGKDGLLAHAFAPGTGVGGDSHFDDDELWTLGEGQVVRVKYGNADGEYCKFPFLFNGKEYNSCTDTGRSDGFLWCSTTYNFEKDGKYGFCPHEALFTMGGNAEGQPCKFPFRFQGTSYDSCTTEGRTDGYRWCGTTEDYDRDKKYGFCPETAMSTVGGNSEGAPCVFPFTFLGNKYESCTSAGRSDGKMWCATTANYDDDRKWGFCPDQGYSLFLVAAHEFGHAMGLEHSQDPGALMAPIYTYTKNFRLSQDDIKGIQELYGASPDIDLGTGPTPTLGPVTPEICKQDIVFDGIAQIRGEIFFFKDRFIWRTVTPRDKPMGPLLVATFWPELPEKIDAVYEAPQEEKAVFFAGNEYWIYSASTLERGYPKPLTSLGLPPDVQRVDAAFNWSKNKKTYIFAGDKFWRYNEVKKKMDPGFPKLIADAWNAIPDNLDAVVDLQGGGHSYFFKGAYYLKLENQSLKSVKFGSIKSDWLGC

[4] = Inhibition of VIM-2 (unknown origin) incubated for 15 mins by absorbance based microplate reader analysis; design: species or system Bacteria
[5] = Inhibition of GIM1 (unknown origin) incubated for 15 mins by absorbance based microplate reader analysis; design: species or system Bacteria
[6] = target: Histone deacetylase 1 (Homo sapiens) (UniProt Q13547); test: Inhibition of C-terminal 6His/FLAG-tagged human recombinant full-length HDAC1 (1 to 482(end) residues) at 10 uM using Boc-Lys-(Ac)-AMC as substrate incubated for 10 mins followed by substrate addition measured after 1 hr by fluorescence based analysis relative to control; conditions: time 70.0 min
Sequence of Histone deacetylase 1 (Homo sapiens) (Q13547 whole entry): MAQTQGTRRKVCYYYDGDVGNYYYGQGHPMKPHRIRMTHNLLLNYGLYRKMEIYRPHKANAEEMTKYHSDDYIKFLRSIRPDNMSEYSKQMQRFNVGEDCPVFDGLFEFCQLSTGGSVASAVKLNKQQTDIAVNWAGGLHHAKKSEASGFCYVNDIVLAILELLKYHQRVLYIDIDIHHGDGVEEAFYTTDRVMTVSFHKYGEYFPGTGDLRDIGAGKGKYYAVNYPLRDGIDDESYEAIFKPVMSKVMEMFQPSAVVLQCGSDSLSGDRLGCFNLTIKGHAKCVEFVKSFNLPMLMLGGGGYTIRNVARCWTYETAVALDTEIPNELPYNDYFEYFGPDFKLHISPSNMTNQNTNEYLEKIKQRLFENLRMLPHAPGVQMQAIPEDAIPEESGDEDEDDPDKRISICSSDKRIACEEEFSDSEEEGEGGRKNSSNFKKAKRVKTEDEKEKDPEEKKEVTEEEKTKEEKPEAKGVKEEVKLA

[7] = target: Carbonic anhydrase 2 (Homo sapiens) (UniProt P00918); test: Inhibition of human CA2 at 10 uM using pNPA as substrate preincubated for 15 mins followed by substrate by absorbance based analysis relative to control
[8] = Selectivity ratio of Ki for human recombinant MMP-2 CD to Ki for C-terminal 6His-tagged full length NDM-1 (unknown origin)
[9] = target: T1, 72 kDa type IV collagenase; test: Binding affinity to human recombinant MMP-2 CD assessed as inhibition constant using OMNIMMP as substrate incubated for 30 mins by fluorescence based analysis
Target sequence in this assay (P08253 whole entry): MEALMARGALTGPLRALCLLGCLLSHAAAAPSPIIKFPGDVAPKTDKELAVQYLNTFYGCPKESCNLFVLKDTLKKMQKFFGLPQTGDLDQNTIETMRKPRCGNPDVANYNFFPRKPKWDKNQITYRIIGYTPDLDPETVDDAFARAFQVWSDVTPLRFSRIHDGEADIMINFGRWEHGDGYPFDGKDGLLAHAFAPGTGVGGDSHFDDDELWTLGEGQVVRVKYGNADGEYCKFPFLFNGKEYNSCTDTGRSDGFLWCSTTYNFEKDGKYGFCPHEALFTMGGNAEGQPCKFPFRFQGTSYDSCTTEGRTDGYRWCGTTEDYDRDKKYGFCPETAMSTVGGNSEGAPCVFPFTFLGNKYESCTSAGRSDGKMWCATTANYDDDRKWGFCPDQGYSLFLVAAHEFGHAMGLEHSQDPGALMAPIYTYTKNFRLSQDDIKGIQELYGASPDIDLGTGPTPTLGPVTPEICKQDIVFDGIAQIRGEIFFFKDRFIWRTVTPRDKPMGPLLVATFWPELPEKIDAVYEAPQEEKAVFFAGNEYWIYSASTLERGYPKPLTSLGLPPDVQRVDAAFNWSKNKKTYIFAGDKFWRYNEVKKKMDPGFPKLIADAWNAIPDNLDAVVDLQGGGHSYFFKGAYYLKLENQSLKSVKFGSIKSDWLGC

Sequence of Metallo-beta-lactamase type 2 (C7C422 whole entry): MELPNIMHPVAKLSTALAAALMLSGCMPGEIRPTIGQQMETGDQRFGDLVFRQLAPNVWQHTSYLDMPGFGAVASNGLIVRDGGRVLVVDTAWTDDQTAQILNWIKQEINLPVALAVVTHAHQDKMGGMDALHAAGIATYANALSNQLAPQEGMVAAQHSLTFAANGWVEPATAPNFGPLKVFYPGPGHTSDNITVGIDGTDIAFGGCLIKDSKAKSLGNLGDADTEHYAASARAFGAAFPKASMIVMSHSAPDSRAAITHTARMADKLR

Compound: Cc1ccc2cccc(NS(=O)(=O)c3cccc(F)c3)c2n1
- IC50 [1]: 1.4 µM

Compound: O=C(O)c1ccc2cccc(NS(=O)(=O)c3cccc(Cl)c3)c2n1
- IC50 [1]: 0.5 µM

Compound: O=C(O)c1ccc2cccc(NS(=O)(=O)c3ccccc3)c2n1
- IC50 [2]: 1.22 µM
- inhibition [3]: > 90%
- IC50 [4]: 0.43 µM
- IC50 [5]: 3.07 µM
- inhibition [6]: < 5%
- inhibition [7]: < 5%
- Ratio Ki [8]: 6
- Ki [9]: 2.12 µM
- IC50 [1]: 0.71 µM

Compound: CONC(=O)c1cccc(C(=O)NOC)n1
- IC50 [1]: 84.3 µM

Compound: O=C(NOCc1ccccc1)c1ccccn1
- IC50 [1]: 530 µM

Compound: O=C(O)c1ccc2c(Br)cc(Br)c(O)c2n1
- IC50 [1]: 0.46 µM

Compound: O=C(O)c1cc(Cl)c2cccc(NS(=O)(=O)c3ccccn3)c2n1
- IC50 [1]: 0.28 µM

Compound: CS(=O)(=O)Nc1cc(Cl)c(Cl)c2ccc(C(=O)O)nc12
- IC50 [2]: 5.23 µM
- inhibition [3]: 91%
- IC50 [4]: 0.47 µM
- IC50 [5]: 11.2 µM
- inhibition [6]: < 5%
- inhibition [7]: < 5%
- IC50 [1]: 0.95 µM

Compound: O=C(O)c1ccc2c(Cl)cc(Cl)c(O)c2n1
- IC50 [2]: 0.48 µM
- inhibition [3]: 20%
- IC50 [4]: 0.16 µM
- IC50 [5]: 1.26 µM
- inhibition [6]: < 5%
- inhibition [7]: < 5%
- IC50 [1]: 0.54 µM

Compound: O=C(O)c1ccc2cccc(NS(=O)(=O)C(F)(F)F)c2n1
- IC50 [1]: 0.9 µM

Compound: O=C(O)c1ccc2c(I)cc(I)c(NS(=O)(=O)c3ccccc3)c2n1
- IC50 [1]: > 1000 µM

Compound: CS(=O)(=O)Nc1cccc2c(Cl)cc(C(=O)O)nc12
- IC50 [2]: 8.11 µM
- inhibition [3]: 90%
- IC50 [4]: 0.47 µM
- IC50 [5]: 21.1 µM
- inhibition [6]: < 5%
- inhibition [7]: < 5%
- IC50 [1]: 1 µM

Compound: O=C(O)c1ccc2cccc(NS(=O)(=O)c3cccc4cccnc34)c2n1
- inhibition [3]: > 90%
- Ratio Ki [8]: 50
- Ki [9]: 20.7 µM
- IC50 [1]: 0.83 µM

Compound: O=C(O)c1ccc2cccc(O)c2n1
- IC50 [2]: 10.3 µM
- inhibition [3]: < 5%
- IC50 [4]: 0.61 µM
- IC50 [5]: 7.38 µM
- inhibition [6]: < 5%
- inhibition [7]: < 5%
- IC50 [1]: 9.1 µM

Compound: C[C@H](CS)C(=O)N1CCC[C@H]1C(=O)O
- inhibition [3]: < 5%
- inhibition [6]: < 5%
- inhibition [7]: < 5%

Compound: CONC(=O)c1ccccn1
- IC50 [1]: 1240 µM

Compound: Cc1ccc2cccc(NS(=O)(=O)c3ccccc3)c2n1
- IC50 [1]: 1.6 µM

Compound: COC(=O)c1ccc2cccc(NS(=O)(=O)c3cccc(F)c3)c2n1
- IC50 [1]: 1.7 µM

Compound: O=C(O)c1ccc2cccc(NS(=O)(=O)c3cccc([N+](=O)[O-])c3)c2n1
- IC50 [1]: 0.56 µM

Compound: O=C(O)c1ccc2cccc(NS(=O)(=O)c3cccc(F)c3)c2n1
- IC50 [1]: 0.68 µM

Compound: CS(=O)(=O)Nc1cccc2c(-c3cccc(N)c3)cc(C(=O)O)nc12
- IC50 [1]: 0.71 µM

Compound: O=C(O)c1cccc(C(=O)NOCc2ccccc2)n1
- IC50 [1]: 22.7 µM

Compound: Nc1cccc(-c2cc(C(=O)O)nc3c(NS(=O)(=O)c4ccccn4)cccc23)c1
- IC50 [1]: 0.25 µM

Compound: O=C(O)c1ccc2cccc(NS(=O)(=O)c3ccc(C(F)(F)F)cc3[N+](=O)[O-])c2n1
- IC50 [2]: 0.24 µM
- inhibition [3]: > 90%
- IC50 [4]: 0.38 µM
- IC50 [5]: 1.5 µM
- inhibition [6]: < 5%
- inhibition [7]: < 5%
- Ratio Ki [8]: 3
- Ki [9]: 0.6 µM
- IC50 [1]: 0.37 µM

Compound: CONC(=O)c1cccc(C(=O)O)n1
- IC50 [1]: 27.8 µM

Compound: O=C(O)c1ccc2c(I)cc(I)c(O)c2n1
- inhibition [3]: 5%
- inhibition [6]: < 5%
- inhibition [7]: < 5%
- IC50 [1]: 0.3 µM

Compound: Oc1c(I)cc(I)c2cccnc12 [IODOQUINOL]
- IC50 [1]: 2.5 µM

Compound: COC(=O)c1ccc2cccc(NS(=O)(=O)c3ccc(C(F)(F)F)cc3)c2n1
- IC50 [1]: 0.75 µM
